Patent publication US11827628B2, “Compositions and methods for inhibition of the JAK pathway” (Rigel Pharmaceuticals, Inc., priority 2005, dated 2023)
Like-named read-outs stand apart in the source and are kept apart here.

Assays:
Primary human T-cells = assay: Primary Human T-Cell Proliferation Assay Stimulated with IL-2 (CellTiter-Glo); format: cell-based; details: read-out: IC50, Example 42
In short: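 IC50 derived from CellTiter-Glo ATP signal after 72 hours of IL-2-driven proliferation at 37° C. Cells: primary human T-cells from blood, stimulated beforehand 3-4 days on anti-CD3/anti-CD28 with IL-2, then rested from IL-2 before compound exposure in duplicate; IL-2-free wells served as unstimulated control.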

[1] = tested on: up-regulation of ICAM-1 (CD54) by IFNγ in A549 lung epithelial cells; assay: A549 Epithelial Line Stimulated with IFNγ (ICAM-1 surface expression, FACS); format: cell-based, human; details: ICAM-1 expression by FACS, read-out: IC50, Example 43
In short: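 ICAM-1 (CD54) flow cytometry on live-gated A549 cells, geometric mean versus dose giving EC50. Cells received IFNγ at 75 ng/mL for 24 h after a 1 h compound pre-treatment spanning 30 μM to 14 nM in medium with 5% FBS and 0.3% DMSO.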

[2] = primary human T-cells stimulated with IL-2, proliferation
[3] = A549 cells stimulated with IFNγ
[4] = primary human T-cell proliferation stimulated with IL-2
[5] = A549 epithelial line stimulated with IFNγ

Row | Molecule | IC50 [1, 3] [nM] | IC50 [1, 5] [nM] | IC50 (Primary human T-cells; [2]) [nM] | IC50 (Primary human T-cells; [4]) [nM]
1 | CNS(=O)(=O)c1cc(Nc2ncc(F)c(Nc3ccc(OCc4cccnc4)cc3)n2)ccc1C [Compound I-190, 5-Fluoro-N2-[3-(N-methylaminosulfony)-4-methylphenyl]-5-fluoro-N4-[4-(3-pyridinyl)methyleneoxyphenyl]-2,4-pyrimidinediamine] |  | 9310 |  | 242
2 | N#CCOc1ccc(Nc2nc(Nc3cccc(S(N)(=O)=O)c3)ncc2F)cc1F [Compound I-12, N2-(3-Aminosulfonylphenyl)-5-fluoro-N4-(4-cyanomethyleneoxy-3-fluorophenyl)-2,4-pyrimidinediamine] |  | 3200 |  | 59.7
3 | Cc1ccc(Nc2ncc(F)c(Nc3ccc(OCC#N)c(F)c3)n2)cc1S(N)(=O)=O [Compound I-11, N2-(3-Aminosulfonyl-4-methylphenyl)-5-fluoro-N4-(4-cyanomethyleneoxy-3-fluorophenyl)-2,4-pyrimidinediamine] |  | 17600 |  | 39.3
4 | N#CCOc1ccc(Nc2nc(Nc3cccc(S(N)(=O)=O)c3)ncc2Br)cc1 [Compound I-13, N2-(3-Aminosulfonylphenyl)-5-bromo-N4-(4-cyanomethyleneoxyphenyl)-2,4-pyrimidinediamine] |  | 1340 |  | 5.05
5 | Cc1ccc(Nc2ncc(F)c(Nc3cc(C)c(OC(C)C(N)=O)c(C)c3)n2)cc1S(N)(=O)=O (racemic) [Compound I-124, Racemic N4-[4-(1-Aminocarbonyl)ethoxy-3,5-dimethyl]phenyl-N2-(3-aminosulfonyl-4-methyl)phenyl-5-fluoro-2,4-pyrimidinediamine] |  | 10400 |  | 342
6 | Cc1cc(Nc2nc(Nc3cccc(S(N)(=O)=O)c3)ncc2F)ccc1OC(C)C(N)=O (racemic) [Compound I-120, Racemic N4-[4-(1-Aminocarbonyl)ethoxy-3-methyl]phenyl-N2-(3-aminosulfonyl)phenyl-5-fluoro-2,4-pyrimidinediamine] |  | 20000 |  | 280
7 | Cc1cc(Nc2nc(Nc3ccc(S(N)(=O)=O)cc3)ncc2F)ccc1OC(C)C(N)=O (racemic) [Compound I-119, Racemic N4-[4-(1-Aminocarbonyl)ethoxy-3-methyl]phenyl-N2-(4-aminosulfonyl)phenyl-5-fluoro-2,4-pyrimidinediamine] |  | 9670 |  | 2440
8 | CN1CCN(c2ccc(Nc3ncc(F)c(Nc4ccc(OCC#N)cc4)n3)cc2S(N)(=O)=O)CC1 [Compound I-9, N2-[3-Aminosulfonyl-4-(4-methylpiperazin-1-yl)phenyl]-5-fluoro-N4-(4-cyanomethyleneoxyphenyl)-2,4-pyrimidinediamine] |  | 15600 |  | 485
9 | N2-(3-Aminosulfonyl-4-methylphenyl)-5-fluoro-N4-[4-(2-pyridinyl)-3-fluoromethyleneoxyphenyl]-2,4-pyrimidinediamine [Compound I-172] |  | 38700 |  | 277
10 | Cc1cc(Nc2nc(Nc3ccc(C)c(S(N)(=O)=O)c3)ncc2F)ccc1OC(C)C(N)=O (racemic) [Compound I-121, Racemic N4-[4-(1-Aminocarbonyl)ethoxy-3-methyl]phenyl-N2-(3-aminosulfonyl-4-methyl)phenyl-5-fluoro-2,4-pyrimidinediamine] |  | 14500 |  | 634
11 | Cc1cc(Nc2nc(Nc3cccc(S(N)(=O)=O)c3)ncc2F)cc(C)c1OC(C)C(N)=O (racemic) [Compound I-123, Racemic N4-[4-(1-Aminocarbonyl)ethoxy-3,5-dimethyl]phenyl-N2-(3-aminosulfonyl)phenyl-5-fluoro-2,4-pyrimidinediamine] |  | 12800 |  | 225

Now from value to molecule, other results behind:

Row | IC50 [1, 3] [nM] | IC50 [1, 5] [nM] | Molecule | IC50 (Primary human T-cells; [2]) [nM] | IC50 (Primary human T-cells; [4]) [nM]
12 | 30500 |  | NC1CCOc2ccc(Nc3nc(Nc4ccc(S(N)(=O)=O)cc4)ncc3F)cc21 (stereo not drawn) [VII-29, N2-(4-Aminosulfonylphenyl)-N4-(chroman-4-amine-6-yl)-5-fluoro-2,4-pyrimidinediamine] | 1460 | 
13 | 5240 |  | Cc1ccc(Nc2ncc(F)c(Nc3ccc4c(ccn4CC#N)c3)n2)cc1S(N)(=O)=O [IX-8, N2-(3-Aminosulfonyl-4-methylphenyl)-N4-(1-cyanomethyleneindol-5-yl)-5-fluoro-2,4-pyrimidinediamine] | 124 | 
14 | 61300 |  | COCCn1ncc2cc(Nc3nc(Nc4cccc(S(N)(=O)=O)c4)ncc3F)ccc21 [VII-23, N2-(3-Aminosulfonylphenyl)-5-fluoro-N4-[1-(2-methoxyethyl)indazolin-5-yl]-2,4-pyrimidinediamine] | 161 | 
15 | 82800 |  | N#CCN1C(=O)CSc2ccc(Nc3nc(Nc4cccc(S(N)(=O)=O)c4)ncc3F)cc21 [VII-36, N2-(3-Aminosulphonylphenyl)-5-fluoro-N4-(3-oxo-4-cyanomethyl-benzo[1,4]thiazin-6-yl)-2,4-pyrimidinediamine] | 119 | 
